Several values for one entry are separate records, joined by “and”; a condition that tells them apart may be missing. Equal values may be shown once.
Assays:
Assay in all cases: biochemical
Assay type in all cases: binding
SfurOBP1 = SfurOBP1 (Sogatella furcifera, UniProt V5T8N5); conditions: OBP1, three replicate columns
Method: (§1) Thirty-six rice odorants ([He et al., 2014]; [Wang et al., 2017]) and 1-N-phenyl-naphthylamine (1-NPN) were purchased from Sigma-Aldrich (St Louis, MO, USA). These odorants and 1-NPN were dissolved in high-performance liquid chromatography (HPLC) purify grade methanol for 1.0 mM as work solution.
(§2) Fluorescence competitive binding assays were performed on Tecan Spark 10M (Tecan Group Ltd., Männedorf, Switzerland) with the F96 Black ELIAS Plate (Sangon) ([Khuhro et al., 2017]; [Liu et al., 2017]). The solutions were excited at 337 nm and emission spectra were recorded between 390 and 490 nm. First, to test the binding constants of 1-NPN to the SfurOBPs, a 2.0 µM solution of protein in 50 mM Tris-HCl (pH = 7.4) was titrated with 1 mM 1-NPN to achieve virous concentrations. Next, the competitive binding of each odorant was measured using the 1-NPN as fluorescent reporter and odorant as competitor. The concentrations of protein and 1-NPN were both 2.0 µM, the odorant added after protein and 1-NPN added into the well of ELIAS Plate for 2 min. The final concentrations of each competitor were 2, 4, 6, 8, 10, 12, 14, 16, 18 and 20 µM. After 2 min of odorant added, the fluorescence intensity was measured and recorded. The volume of mixed solution in each well was maintained at 250 µL. Each interaction was performed in triplicates.
(§3) GraphPad Prism 7.0 software (GraphPad Software, Inc., La Jolla, CA, USA) was used to calculated and generated the binding constants (K1−NPN) of 1-NPN to SfurOBPs and relative Scatchard plots ([Ban et al., 2003]; [Li et al., 2016]). Dissociation constant (Ki) of each odorant to SfurOBP was computed from the corresponding IC50 value (the half maximal inhibitory concentration), using the following equation: Ki=[IC50]/(1 + [1-NPN]/K1−NPN), where [1-NPN] is the free concentration of 1-NPN and K1−NPN is the dissociation constant of the complex protein/1-NPN.

SfurOBP11 = SfurOBP11 (Sogatella furcifera, UniProt V5T6E3)
SfurOBP11, sequence (V5T6E3 entry or part of it): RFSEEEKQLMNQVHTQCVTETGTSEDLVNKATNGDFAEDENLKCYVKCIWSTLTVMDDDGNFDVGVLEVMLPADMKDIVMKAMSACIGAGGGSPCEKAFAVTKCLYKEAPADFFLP
Method: as §1, §2, §3

SfurOBP2 = SfurOBP2 (Sogatella furcifera, UniProt V5T759)
SfurOBP2, sequence (V5T759 entry or part of it): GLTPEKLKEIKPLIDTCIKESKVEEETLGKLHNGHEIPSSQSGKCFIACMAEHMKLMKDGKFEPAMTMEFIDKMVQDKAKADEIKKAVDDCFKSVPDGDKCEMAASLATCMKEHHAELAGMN
Method: as §1, §2, §3

SfurOBP3 = SfurOBP3 (Sogatella furcifera, UniProt V5T818); conditions: OBP3, three replicate columns
SfurOBP3, sequence (V5T818 entry or part of it): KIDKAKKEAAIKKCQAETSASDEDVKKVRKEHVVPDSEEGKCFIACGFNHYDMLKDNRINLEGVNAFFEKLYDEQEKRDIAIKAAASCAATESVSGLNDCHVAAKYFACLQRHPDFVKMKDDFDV
Method: as §1, §2, §3

SfurOBP1, sequence (V5T8N5 entry or part of it): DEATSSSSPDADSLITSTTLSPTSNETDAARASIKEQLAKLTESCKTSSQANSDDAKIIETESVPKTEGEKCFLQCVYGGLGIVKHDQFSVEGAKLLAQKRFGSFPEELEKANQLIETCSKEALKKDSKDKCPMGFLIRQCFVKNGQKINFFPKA

Fluorescence competitive binding assay, fluorescence intensity (SfurOBP1; ligand concentration 2 (μM)): 6756 and 5373 and 6005
Fluorescence competitive binding assay, fluorescence intensity (SfurOBP1; ligand concentration 4 (μM)): 6244 and 6492 and 6739
Fluorescence competitive binding assay, fluorescence intensity (SfurOBP1; ligand concentration 6 (μM)): 6349 and 5828 and 6089
Fluorescence competitive binding assay, fluorescence intensity (SfurOBP1; ligand concentration 8 (μM)): 6071 and 5880 and 6063
Fluorescence competitive binding assay, fluorescence intensity (SfurOBP1; ligand concentration 10 (μM)): 6080 and 6185 and 6121
Fluorescence competitive binding assay, fluorescence intensity (SfurOBP1; ligand concentration 12 (μM)): 5959 and 5941 and 5922
Fluorescence competitive binding assay, fluorescence intensity (SfurOBP1; ligand concentration 14 (μM)): 6211 and 5589 and 5885
Fluorescence competitive binding assay, fluorescence intensity (SfurOBP1; ligand concentration 16 (μM)): 6060 and 6168 and 5508
Fluorescence competitive binding assay, fluorescence intensity (SfurOBP1; ligand concentration 18 (μM)): 6493 and 6572 and 6293
Fluorescence competitive binding assay, fluorescence intensity (SfurOBP1; ligand concentration 20 (μM)): 7139 and 6435 and 6856
Fluorescence intensity, fluorescence competitive binding assay, OBP11 (SfurOBP11; ligand concentration 2, replicate 1): 28052
Fluorescence intensity, fluorescence competitive binding assay, OBP11 (SfurOBP11; ligand concentration 2, replicate 2): 24884
Fluorescence intensity, fluorescence competitive binding assay, OBP11 (SfurOBP11; ligand concentration 2, replicate 3): 25998
Fluorescence intensity, fluorescence competitive binding assay, OBP11 (SfurOBP11; ligand concentration 4, replicate 1): 25234
Fluorescence intensity, fluorescence competitive binding assay, OBP11 (SfurOBP11; ligand concentration 4, replicate 2): 27203
Fluorescence intensity, fluorescence competitive binding assay, OBP11 (SfurOBP11; ligand concentration 4, replicate 3): 25942
Fluorescence intensity, fluorescence competitive binding assay, OBP11 (SfurOBP11; ligand concentration 6, replicate 1): 26005
Fluorescence intensity, fluorescence competitive binding assay, OBP11 (SfurOBP11; ligand concentration 6, replicate 2): 24895
Fluorescence intensity, fluorescence competitive binding assay, OBP11 (SfurOBP11; ligand concentration 6, replicate 3): 23079
Fluorescence intensity, fluorescence competitive binding assay, OBP11 (SfurOBP11; ligand concentration 8, replicate 1): 23239
Fluorescence intensity, fluorescence competitive binding assay, OBP11 (SfurOBP11; ligand concentration 8, replicate 2): 23328
Fluorescence intensity, fluorescence competitive binding assay, OBP11 (SfurOBP11; ligand concentration 8, replicate 3): 24337
Fluorescence intensity, fluorescence competitive binding assay, OBP11 (SfurOBP11; ligand concentration 10, replicate 1): 23466
Fluorescence intensity, fluorescence competitive binding assay, OBP11 (SfurOBP11; ligand concentration 10, replicate 2): 24012
Fluorescence intensity, fluorescence competitive binding assay, OBP11 (SfurOBP11; ligand concentration 10, replicate 3): 22919
Fluorescence intensity, fluorescence competitive binding assay, OBP11 (SfurOBP11; ligand concentration 12, replicate 1): 20499
Fluorescence intensity, fluorescence competitive binding assay, OBP11 (SfurOBP11; ligand concentration 12, replicate 2): 21796
Fluorescence intensity, fluorescence competitive binding assay, OBP11 (SfurOBP11; ligand concentration 12, replicate 3): 19860
Fluorescence intensity, fluorescence competitive binding assay, OBP11 (SfurOBP11; ligand concentration 14, replicate 1): 20110
Fluorescence intensity, fluorescence competitive binding assay, OBP11 (SfurOBP11; ligand concentration 14, replicate 2): 20124
Fluorescence intensity, fluorescence competitive binding assay, OBP11 (SfurOBP11; ligand concentration 14, replicate 3): 20151
Fluorescence intensity, fluorescence competitive binding assay, OBP11 (SfurOBP11; ligand concentration 16, replicate 1): 18498
Fluorescence intensity, fluorescence competitive binding assay, OBP11 (SfurOBP11; ligand concentration 16, replicate 2): 20828
Fluorescence intensity, fluorescence competitive binding assay, OBP11 (SfurOBP11; ligand concentration 16, replicate 3): 20812
Fluorescence intensity, fluorescence competitive binding assay, OBP11 (SfurOBP11; ligand concentration 18, replicate 1): 20721
Fluorescence intensity, fluorescence competitive binding assay, OBP11 (SfurOBP11; ligand concentration 18, replicate 2): 21669
Fluorescence intensity, fluorescence competitive binding assay, OBP11 (SfurOBP11; ligand concentration 18, replicate 3): 21849
Fluorescence intensity, fluorescence competitive binding assay, OBP11 (SfurOBP11; ligand concentration 20, replicate 1): 20792
Fluorescence intensity, fluorescence competitive binding assay, OBP11 (SfurOBP11; ligand concentration 20, replicate 2): 21117
Fluorescence intensity, fluorescence competitive binding assay, OBP11 (SfurOBP11; ligand concentration 20, replicate 3): 20999
Fluorescence competitive binding assay, OBP2 (raw fluorescence reading) (SfurOBP2; ligand concentration 2 (unit not given), replicate column 1 of 3): 18255
Fluorescence competitive binding assay, OBP2 (raw fluorescence reading) (SfurOBP2; ligand concentration 2 (unit not given), replicate column 2 of 3): 18056
Fluorescence competitive binding assay, OBP2 (raw fluorescence reading) (SfurOBP2; ligand concentration 2 (unit not given), replicate column 3 of 3): 17857
Fluorescence competitive binding assay, OBP2 (raw fluorescence reading) (SfurOBP2; ligand concentration 4 (unit not given), replicate column 1 of 3): 17231
Fluorescence competitive binding assay, OBP2 (raw fluorescence reading) (SfurOBP2; ligand concentration 4 (unit not given), replicate column 2 of 3): 17998
Fluorescence competitive binding assay, OBP2 (raw fluorescence reading) (SfurOBP2; ligand concentration 4 (unit not given), replicate column 3 of 3): 18274
Fluorescence competitive binding assay, OBP2 (raw fluorescence reading) (SfurOBP2; ligand concentration 6 (unit not given), replicate column 1 of 3): 16096
Fluorescence competitive binding assay, OBP2 (raw fluorescence reading) (SfurOBP2; ligand concentration 6 (unit not given), replicate column 2 of 3): 17472
Fluorescence competitive binding assay, OBP2 (raw fluorescence reading) (SfurOBP2; ligand concentration 6 (unit not given), replicate column 3 of 3): 18707
Fluorescence competitive binding assay, OBP2 (raw fluorescence reading) (SfurOBP2; ligand concentration 8 (unit not given), replicate column 1 of 3): 16149
Fluorescence competitive binding assay, OBP2 (raw fluorescence reading) (SfurOBP2; ligand concentration 8 (unit not given), replicate column 2 of 3): 16678
Fluorescence competitive binding assay, OBP2 (raw fluorescence reading) (SfurOBP2; ligand concentration 8 (unit not given), replicate column 3 of 3): 16908
Fluorescence competitive binding assay, OBP2 (raw fluorescence reading) (SfurOBP2; ligand concentration 10 (unit not given), replicate column 1 of 3): 15320
Fluorescence competitive binding assay, OBP2 (raw fluorescence reading) (SfurOBP2; ligand concentration 10 (unit not given), replicate column 2 of 3): 15081
Fluorescence competitive binding assay, OBP2 (raw fluorescence reading) (SfurOBP2; ligand concentration 10 (unit not given), replicate column 3 of 3): 16366
Fluorescence competitive binding assay, OBP2 (raw fluorescence reading) (SfurOBP2; ligand concentration 12 (unit not given), replicate column 1 of 3): 14706
Fluorescence competitive binding assay, OBP2 (raw fluorescence reading) (SfurOBP2; ligand concentration 12 (unit not given), replicate column 2 of 3): 15645
Fluorescence competitive binding assay, OBP2 (raw fluorescence reading) (SfurOBP2; ligand concentration 12 (unit not given), replicate column 3 of 3): 15214
Fluorescence competitive binding assay, OBP2 (raw fluorescence reading) (SfurOBP2; ligand concentration 14 (unit not given), replicate column 1 of 3): 14108
Fluorescence competitive binding assay, OBP2 (raw fluorescence reading) (SfurOBP2; ligand concentration 14 (unit not given), replicate column 2 of 3): 14696
Fluorescence competitive binding assay, OBP2 (raw fluorescence reading) (SfurOBP2; ligand concentration 14 (unit not given), replicate column 3 of 3): 15283
Fluorescence competitive binding assay, OBP2 (raw fluorescence reading) (SfurOBP2; ligand concentration 16 (unit not given), replicate column 1 of 3): 14285
Fluorescence competitive binding assay, OBP2 (raw fluorescence reading) (SfurOBP2; ligand concentration 16 (unit not given), replicate column 2 of 3): 14484
Fluorescence competitive binding assay, OBP2 (raw fluorescence reading) (SfurOBP2; ligand concentration 16 (unit not given), replicate column 3 of 3): 14085
Fluorescence competitive binding assay, OBP2 (raw fluorescence reading) (SfurOBP2; ligand concentration 18 (unit not given), replicate column 1 of 3): 14063
Fluorescence competitive binding assay, OBP2 (raw fluorescence reading) (SfurOBP2; ligand concentration 18 (unit not given), replicate column 2 of 3): 14665
Fluorescence competitive binding assay, OBP2 (raw fluorescence reading) (SfurOBP2; ligand concentration 18 (unit not given), replicate column 3 of 3): 14360
Fluorescence competitive binding assay, OBP2 (raw fluorescence reading) (SfurOBP2; ligand concentration 20 (unit not given), replicate column 1 of 3): 13793
Fluorescence competitive binding assay, OBP2 (raw fluorescence reading) (SfurOBP2; ligand concentration 20 (unit not given), replicate column 2 of 3): 14314
Fluorescence competitive binding assay, OBP2 (raw fluorescence reading) (SfurOBP2; ligand concentration 20 (unit not given), replicate column 3 of 3): 13272
Fluorescence competitive binding assay, fluorescence intensity (SfurOBP3; ligand concentration 2): 60413 and 65968 and 63200
Fluorescence competitive binding assay, fluorescence intensity (SfurOBP3; ligand concentration 4): 61250 and 61185 and 61320
Fluorescence competitive binding assay, fluorescence intensity (SfurOBP3; ligand concentration 6): 60246 and 58949 and 59593
Fluorescence competitive binding assay, fluorescence intensity (SfurOBP3; ligand concentration 8): 52502 and 56703 and 49181
Fluorescence competitive binding assay, fluorescence intensity (SfurOBP3; ligand concentration 10): 59611 and 55127 and 57362
Fluorescence competitive binding assay, fluorescence intensity (SfurOBP3; ligand concentration 12): 47975 and 49504 and 49931
Fluorescence competitive binding assay, fluorescence intensity (SfurOBP3; ligand concentration 14): 42590 and 46739 and 44665
Fluorescence competitive binding assay, fluorescence intensity (SfurOBP3; ligand concentration 16): 36927 and 42551 and 39754
Fluorescence competitive binding assay, fluorescence intensity (SfurOBP3; ligand concentration 18): 35693 and 43209 and 41553
Fluorescence competitive binding assay, fluorescence intensity (SfurOBP3; ligand concentration 20): 42100 and 41400 and 42823
SMILES: CC(C)COC(=O)CCCCC(=O)OCC(C)C [DA(diisobutyl adipate)]

Reference: PMC6409085, “Three odorant-binding proteins are involved in the behavioral response of Sogatella furcifera to rice plant volatiles” (PeerJ, 2019)
